Data published in patent US6218546A, “Reagent for the detection and isolation of carbohydrates or glycan receptors” (Roche Diagnostics GmbH, priority 1995, dated 2001).

How the values were obtained:
[1] = biological target: T1, digoxigenin-labelled MAA lectin (Maackia amurensis, UniProt P0DKL3); assay: Detection of immobilized sugar derivative with digoxigenin-labelled MAA lectin on streptavidin microtitre plate; type: binding; conditions: 0.5-20 pmol/well, read at 405 nm
T1 sequence (P0DKL3 30-278 limits assumed): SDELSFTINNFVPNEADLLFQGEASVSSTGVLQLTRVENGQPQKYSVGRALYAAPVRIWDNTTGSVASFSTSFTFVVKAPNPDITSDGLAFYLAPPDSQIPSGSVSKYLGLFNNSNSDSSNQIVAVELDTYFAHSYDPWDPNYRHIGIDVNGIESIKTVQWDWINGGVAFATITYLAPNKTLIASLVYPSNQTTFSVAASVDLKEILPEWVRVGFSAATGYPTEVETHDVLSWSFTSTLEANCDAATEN
Description: Derivatized N-acetyl-neuraminosyl-2,3-D-lactose in TBS is incubated for 4 h at room temperature on a microtitre plate coated with streptavidin as a model substance to test the standard conditions. After immobilization of the sugar derivative (0.5-20 pmol/well in the microtitre plate; dissolved in TBS) the wells are washed five times with 0.25 ml TBS. In order to bind the digoxigenin-labelled MAA lectin (specific for N-acetyl-neuraminosyl-α(2-3)Gal residues) 1-10 μg of the lectin is dissolved in 1 ml TBSM (TBSM=TBS containing 1 mM MgCl2, 1 mM MnCl2 and 1 mM CaCl2) containing 0.5% blocking reagent (Boehringer Mannheim) and subsequently 0.2 ml of the lectin solution/well is incubated for 1 hour at room temperature while shaking gently. After the lectin has bound the wells are washed five times with 0.25 ml buffer (TBST=TBS containing 0.1% Tween-20®). […] The colour development is read at 405 nm and RT after an incubation period of ca. 20 to 30 min. […]
For the detection of N-acetyl-neuraminosyl-2,3-D-lactose the wells are washed five times with 0.25 ml TBS after immobilization of the sugar derivative (0.5-20 pmol/well in the microtitre plate; dissolved in TBS). […] The colour development is read at 405 nm and RT after an incubation period of ca. 20 to 30 min. […]

[2] = Stability of marker and saccharide conjugates (HPLC analysis); type: physicochemical; conditions: after one week in MeOH at 25° C.
[3] = biological target: T1, digoxigenin-labelled MAA lectin; assay: Inhibition of digoxigenin-labelled MAA lectin binding to immobilized fetuin sugar derivatives on streptavidin microtitre plate; conditions: fetuin sugar derivatives (10 pmol) on the MTP
[4] = biological target: digoxigenin-labelled SNA lectin (Sambucus nigra, UniProt Q41358); type: binding; conditions: saccharide added to wells containing SNA as the lectin; fetuin sugar derivatives (10 pmol)
Chain of digoxigenin-labelled SNA lectin (Q41358 309-570 limits assumed): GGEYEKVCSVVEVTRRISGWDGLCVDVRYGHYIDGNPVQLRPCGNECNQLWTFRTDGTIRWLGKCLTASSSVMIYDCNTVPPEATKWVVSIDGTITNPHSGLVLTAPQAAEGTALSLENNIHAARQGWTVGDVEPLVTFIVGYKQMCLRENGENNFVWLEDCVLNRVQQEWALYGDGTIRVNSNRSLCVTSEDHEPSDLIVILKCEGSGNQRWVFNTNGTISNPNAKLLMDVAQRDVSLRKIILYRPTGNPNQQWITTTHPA
Chain of digoxigenin-labelled SNA lectin (Q41358 29-292 partner limits assumed): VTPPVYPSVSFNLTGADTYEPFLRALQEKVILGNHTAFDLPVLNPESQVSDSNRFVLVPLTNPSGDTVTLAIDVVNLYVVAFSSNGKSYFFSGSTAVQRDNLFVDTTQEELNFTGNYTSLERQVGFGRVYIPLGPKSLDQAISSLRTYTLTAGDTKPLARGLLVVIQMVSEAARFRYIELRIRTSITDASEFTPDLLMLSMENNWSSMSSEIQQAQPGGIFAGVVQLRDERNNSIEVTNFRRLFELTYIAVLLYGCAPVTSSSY

CC(=O)NC1C(O)CC(OC2C(O)C(CO)OC(OC3C(CO)OC(NNC(=O)NCCNC(=O)c4ccccc4N=Nc4ccc(O)cc4)C(O)C3O)C2O)(C(=O)O)OC1C(O)C(O)CO (stereo not drawn)
detection limit ([1]; conjugate with BNAH (Example 6)): 0.5 pmol | detection limit ([1]; conjugate with marker 4 (Example 4)): 0.5 pmol

NNC(=O)NCCNC(=O)c1ccccc1N=Nc1ccc(O)cc1 [marker 4, 2-[2'-(4"-hydroxybenzeneazo)-benzoic acid amido]-ethylsemicarbazide]
decomposition of the marker [2]: no decomposition

CC(=O)NC1C(O)CC(OC2C(O)C(CO)OC(OC3C(CO)OC(O)C(O)C3O)C2O)(C(=O)O)OC1C(O)C(O)CO [N-acetyl-neuraminosyl-2,3-D-lactose]
signal strength, % of the value without inhibition ([3]; 200 pmol added): about 50% | signal strength, % of the value without inhibition ([3]; 500 pmol added): about 15% | inhibition of lectin signal [4]: no inhibition
